Data published in US10064876B2, “Bile acid receptor agonism for treating addiction” (Vanderbilt University, priority 2015, dated 2018).
“Also recorded” adds a separate entry of the source.

What was measured:
[1] = test system: C57BL/6J mice; experiment: cocaine conditioned place preference (CPP) in mice under chronic OCA; type: in vivo, mouse; conditions: OCA 10 mg/kg orally six days a week for four weeks vs vehicle, CPP started after 2 weeks, cocaine 20 mg/kg i.p.
Method: CPP was performed as previously described, with modifications (Graham D L, et al. (2013). Mol Psychiatry. 18(9):961-962). Briefly, mice were weighed and then acclimated to the testing room for at least 20 minutes prior to testing each day. During the first phase (pre-conditioning, day 1), mice were placed on the grid floor side of a two chamber apparatus. For 30 min, the mice had free access to both sides of the apparatus, which each contained their own distinct visual and tactile cues. During the second phase (conditioning, days 2-9), on alternate days mice were restricted to one side or the other of the apparatus for 30 min by use of a dividing door. […] During this time, the mouse's locomotor activity was measured by infrared sensors and used to determine cocaine-induced locomotor sensitization. […] Thus mice were given full access to both compartments and their time spent on each side was measured. % CPP was calculated as the time spent on the cocaine-paired side between post-conditioning minus the time spent on the cocaine-paired side during pre-conditioning divided by the time spent on the saline-paired side during pre-conditioning. […] Locomotor sensitization to cocaine was determined by the ambulatory distance on days when mice received cocaine during the conditioning phase of CPP. […]

[2] = test system: C57BL/6J mice; experiment: cocaine-induced locomotion in OCA-treated mice; type: in vivo, mouse; conditions: OCA 10 mg/kg orally, chronic, vs vehicle
Method: CPP was performed as previously described, with modifications (Graham D L, et al. (2013). Mol Psychiatry. 18(9):961-962). Briefly, mice were weighed and then acclimated to the testing room for at least 20 minutes prior to testing each day. During the first phase (pre-conditioning, day 1), mice were placed on the grid floor side of a two chamber apparatus. For 30 min, the mice had free access to both sides of the apparatus, which each contained their own distinct visual and tactile cues. During the second phase (conditioning, days 2-9), on alternate days mice were restricted to one side or the other of the apparatus for 30 min by use of a dividing door. Just prior to being placed in the chamber, each mouse was given an injection of either cocaine (20 mg/kg, i.p.) or saline (i.p.). […] Only the first 20 minutes of pre-conditioning and post-conditioning was used in the calculation of % CPP. […] Following 20 minutes of acclimation to the testing room, mice were initially placed in open field chambers for 60 min and ambulatory distance was recorded. […] Finally, mice were removed again and injected with cocaine (20 mg/kg, i.p.) before being placed back in the chamber for an additional 120 minutes. […] Jellies were composed of gelatin (10% w/v), sucralose (18.5% w/v), artificial strawberry flavoring (8% v/v); beta cyclodextrin (2% w/v) in water. […]

[3] = body weight during chronic OCA treatment; type: in vivo, mouse; conditions: OCA 10 mg/kg orally vs vehicle, throughout the 4-week study
Text: Jellies were composed of gelatin (10% w/v), sucralose (18.5% w/v), artificial strawberry flavoring (8% v/v); beta cyclodextrin (2% w/v) in water. […] Jellies containing vehicle contained the same amount of beta cyclodextrin. Mice were given jellies by voluntary oral administration six days per week for four weeks. They were given the jellies between 3 pm and 6 pm by placing each mouse into an open field chamber containing the jelly. To ensure that mice consumed the jellies consistently, all mice were initially trained to eat jellies without drug for 5 days prior to drug/vehicle jelly administration. Mice in this group underwent behavioral testing for cocaine conditioned place preference after 2 weeks of chronic drug administration. During this time, drug administrations were continued until sacrifice.

[4] = test system: AMPA receptor-mediated excitatory post-synaptic currents (EPSCs) in NAc medium spiny neurons; experiment: whole-cell electrophysiology, EPSC amplitude in ex vivo brain slices; type: cell-based, mouse; conditions: 10 μM OCA (FIG. 29B legend), perfused 10 min, holding at −70 mV, 50 μM picrotoxin
Method: Ex vivo mouse sagittal brain slices were prepared as previously described (Grueter, B. A., et al. Nat Neurosci 13:1519-1525 (2010)). Briefly, mice were acutely anesthetized using isoflurane and sacrificed by rapid decapitation. Brains were submerged in ice-cold sucrose dissecting solution (80 mM NaCl, 2.5 mM KCl, 7 mM MgCl2, 0.5 mM CaCl2, 1.25 mM NaH2PO4, 25 mM NaHCO3, 75 mM sucrose, and 25 mM glucose) and 250 μm thick slices were cut using the Leica 200VT Vibratome. Slices were allowed to recover for 10-15 min at 35° C. in an N-methyl D-glucamine (NMDG) based recovery solution (2.5 mM KCl, 20 mM HEPES, 1.2 mM NaH2PO4, 25 mM glucose, 93 mM NMDG, 30 mM NaHCO3, 5 mM sodium ascorbate, 3 mM sodium pyruvate, 10 mM MgSO4, and 0.5 mM CaCl2) before being transferred to a room temperature ACSF holding chamber for one hour prior to use. ASCF used for holding chamber and recordings contained 120 mM NaCl, 2.5 mM KCL, 1.5 mM MgCl2, 2.5 mM CaCl2, 1 mM NaH2PO4, 25 mM NaHCO3, and 10 mM glucose. […] Evoked responses were elicited by electrical stimulation via the Iso-flex stimulation isolator and recorded using the Axopatch Multiclamp 700B amplifier and Axon Digidata 1550 low-noise data acquisition digitizer. […] Peak EPSC amplitude was measured for the duration of the experiment and normalized to the first 10 min. […]

[5] = phase III clinical trial, hepatic steatosis; cited from earlier work
[6] = test system: FXR; conditions: Sayin 2013; Li 2013; cited from earlier work
[7] = test system: Lipoprotein lipase (Lpl); experiment: hepatic gene expression by RNA-seq; type: in vivo, mouse; conditions: liver
Method: The transcriptional sequencing was implemented with modifications of the standard Illumina methods (Bentley, D. R. et al. Nature 456, 53-59 (2008)). Sequencing reactions were performed using the Illumina HiSeq (v3 chemistry). Initial QC quantification of the extracted total RNA was done by using Qubit Fluorometer (Invitrogen). Agilent 2100 Bioanalyzer was used to check the quality of the extracted RNA from both the samples. About 30 ng of total RNA was amplified using the NuGEN Technologies Ovation RNA amplification kit optimized for RNA sequencing. The output is double-stranded complementary DNA (cDNA) that was sheared using the Covaris instrument to an average insert size of 300 bp. The sheared DNA entered the standard Illumina TruSeq library preparation protocol at the standard end-repair step. […] Following LM-PCR, the samples were purified and assessed for quality using the Agilent Bioanalyzer. Final quantitation was performed using the KAPA Biosystems Kapa Library Quant kit. […]
Multiple stages of quality control (QC) on sequencing data was carried out. […] Raw data were aligned with TopHat 2 against mouse MM10 genome, and read count data were obtained using HTSeq, DESeq (Anders, S. & Huber, W. Genome Biol. 11, R106 (2010)), edgeR (Robinson, M. D., et al. Bioinformatics 26, 139-140 (2010)) and baySeq (Hardcastle, T. J. & Kelly, K. A. BMC Bioinformatics 11, 422 (2010)). […]

For CC[C@H]1[C@@H](O)[C@@H]2[C@H](CC[C@]3(C)[C@@H]([C@H](C)CCC(=O)O)CC[C@@H]23)[C@@]2(C)CC[C@@H](O)C[C@@H]12 [OCA, (4R)-4-[(3R,5S,6R,7R,8S,9S,10S,13R,14S,17R)-6-Ethyl-3,7-dihydroxy-10,13-dimethyl-2,3,4,5,6,7,8,9,11,12,14,15,16,17-tetradecahydro-1H-cyclopenta[a]phenanthren-17-yl]pentanoic acid], which “cocaine CPP (preference for the cocaine-paired chamber, % CPP)” value [1] is on record?
Its value is “decreased; also recorded: reduced preference”.

And the “cocaine CPP (preference for the cocaine-paired chamber, % CPP)” value ([1]; listed as 6-ECDCA)?
The value was “significantly reduced”.

What about the cocaine-induced locomotion [2] of the same molecule?
The cocaine-induced locomotion was “impaired”.

What about the body weight [3] of the same molecule?
Its body weight is “No differences”.

And the “EPSC amplitude in NAc medium spiny neurons” value [4]?
Its value is “robust depression; also recorded: reduced”.

What about the clinical efficacy [5] of the same molecule?
The clinical efficacy was “clinical efficacy”.

And the safety profile [5]?
The safety profile was “excellent safety profile”.

Which FXR antagonist activity [6] does the source give for C[C@H](CCC(=O)NCCS(=O)(=O)O)[C@H]1CC[C@H]2[C@@H]3[C@@H](O)[C@@H](O)[C@@H]4C[C@H](O)CC[C@]4(C)[C@H]3CC[C@]12C [TβMCA, 5β-cholanic acid-3α,6β,7β-triol-N-[2-sulphoethyl]-amide] here?
Its FXR antagonist activity is “potent FXR antagonist”.

With COC(=O)/C=C/c1cccc(N(Cc2ccc(-c3ccc(N(C)C)cc3)cc2)C(=O)C2CCCCC2)c1 [fexaramine] as the molecule, how does the “Lpl hepatic expression, increase relative to DIO controls” value [7] read?
The value was 2.4 fold.
